From US20240199625A1, “BICYCLIC HETEROCYCLIC FGFR4 INHIBITOR, PHARMACEUTICAL COMPOSITION AND PREPARATION COMPRISING SAME, AND APPLICATION THEREOF” (Hangzhou Apeloa Medicine Research Institute Co., Ltd., priority 2021, published 2024) come the findings set out here.

Experiment [1] concerns the target tyrosine kinase FGFR1 (Homo sapiens (Human), UniProt P11362). Kind of experiment: In vitro kinase test (HTRF), FGFR1. Format: biochemical. As to conditions: 60 min preincubation, 30 min reaction at 37° C. Here is the method:
(§1) The effect of compounds of the present invention on tyrosine kinase FGFR1 and FGFR4 activity is evaluated by an in vitro kinase test. The method used in the test was homogeneous time-resolved fluorescence (HTRF).
(§2) Compound preparation: Add 45 μL of DMSO to 5 μL of stock solution at a concentration of 10 mM to prepare the solution LY2874455 at 1000 µM; then add 12 μL of the compound at 1000 μM to 88 µL of DMSO to prepare the solution LY2874455 at 120 μM as the starting concentration; add 48 μL of DMSO to 2 μL of stock solution at a concentration of 10 mM to prepare the solution BLU554 at 400 μM as the starting concentration; add 15 μL of DMSO to 10 μL of sample compound stock solution at a concentration of 10 mM to prepare a sample compound solution at 4 mM as the starting concentration; transfer the compound solution to the target plate with the dispenser Echo.
(§3) Kinase reaction: Add 5 μL of kinase solution to each well, incubate the compound and kinase at room temperature for 60 min, add 5 μL of substrate and ATP mixture to start reacting at 37° C. for a certain period of time (30 min for FGFR1 kinase test, and 40 min for FGFR4 kinase test), and then add 10 μL of X1665 and antibody detection reagent mixture to stop; after 60 min of incubation at room temperature, read the TR-FRET signal with microplate reader SPARK 10M at the transmit wavelength of 665 nm/612 nM. Test enzyme activity at 10 concentrations for each compound, and calculate the IC50 value of the compound with the data with the analysis software, as shown in Table 1.

Experiment [2] deals with tyrosine kinase FGFR4 (Homo sapiens (Human), UniProt P22455). The experiment can be described thus: In vitro kinase test (HTRF), FGFR4. Format: biochemical. As to conditions: for IC50: HTRF, 60 min preincubation, 40 min reaction at 37° C.; for FGFR1 IC50 / FGFR4 IC50 ratio (FGFR4 selectivity): ratio of the FGFR1 and FGFR4 IC50 values. As to the method: as §1, §2, §3
tyrosine kinase FGFR4, sequence (P22455 22-802): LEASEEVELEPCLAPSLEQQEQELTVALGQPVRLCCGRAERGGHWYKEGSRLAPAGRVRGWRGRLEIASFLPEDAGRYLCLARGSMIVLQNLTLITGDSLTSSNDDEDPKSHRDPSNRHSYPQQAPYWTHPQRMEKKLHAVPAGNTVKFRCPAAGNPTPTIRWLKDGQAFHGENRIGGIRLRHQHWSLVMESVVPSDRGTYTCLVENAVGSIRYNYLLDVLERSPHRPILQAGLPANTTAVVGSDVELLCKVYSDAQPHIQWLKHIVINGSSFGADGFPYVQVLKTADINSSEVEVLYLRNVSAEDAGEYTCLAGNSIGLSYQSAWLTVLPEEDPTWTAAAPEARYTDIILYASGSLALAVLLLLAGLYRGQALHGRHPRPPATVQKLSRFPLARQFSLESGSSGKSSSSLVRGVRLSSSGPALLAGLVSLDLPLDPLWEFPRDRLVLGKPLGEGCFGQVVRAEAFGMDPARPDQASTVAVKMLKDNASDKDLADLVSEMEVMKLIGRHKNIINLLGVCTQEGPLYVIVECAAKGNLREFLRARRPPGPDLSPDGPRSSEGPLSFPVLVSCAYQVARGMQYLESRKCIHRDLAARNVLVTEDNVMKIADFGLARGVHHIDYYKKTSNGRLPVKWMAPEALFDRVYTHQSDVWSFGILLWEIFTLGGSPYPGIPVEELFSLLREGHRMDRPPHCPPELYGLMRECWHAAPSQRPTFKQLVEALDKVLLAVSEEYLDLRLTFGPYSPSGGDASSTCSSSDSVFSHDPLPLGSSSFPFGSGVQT
Experiment [3] has as its system human hepatoma cells Hep3B. Kind of experiment: Cell proliferation test (CELL TITER-GLO). Format: cell-based. Conditions: 3 days incubation, CTG, read-out: IC50 Value of Compound for Hep3B Cells. Here is the method:
The effect of the compounds of the present invention on the proliferation of human hepatoma cells Hep3B is evaluated by an in vitro cell test. The method used in the test was CELL TITER-GLO (CTG).
Cell plating: Take Hep3B cells in the logarithmic growth phase, digest, centrifuge at 1,000 rpm for 5 min at room temperature and collect, resuspend with EMEM medium of 10% FBS and count, and inoculate into a 384-well microplate (#3765) at a density of 800 cells/well, 20 μL in each.
Compound preparation: Dissolve the compound in DMSO to prepare a stock solution at a concentration of 10 mM, dilute the sample compound stock solution to 2 mM with DMSO (6 μL of the stock solution plus 24 μL of DMSO) as the starting concentration, and dilute the control compound stock solution to 200 μM with DMSO (2 μL of the stock solution plus 98 μL of DMSO) as the starting concentration; dilute the compound 9 times with DMSO in gradient by 3 folds, and then dilute the compound to 40 times the final concentration dose with cell culture medium (2 μL of the compound plus 78 μL of […]).
Cell dosing: Add 5 μL (5×) of the compound to the corresponding wells, make sure the final concentrations of sample compounds are respectively 10000 nM, 3333 nM, 1111 nM, 370.37 nM, 123.46 nM, 41.15 nM, 13.72 nM, 4.57 nM, 1.52 nM, 0.50 nM, take 0.5% DMSO as the negative control, and incubate the microplate at 37° C. in 5% C02 for 3 days.
CTG detection: After 3 days of incubation, add 5 μL of Cell Titer-Glo® reagent per well, incubate on a shaker at 300 rpm for 60 min protected from light at room temperature, read the luminescence signals with microplate reader Spark 10M, and calculate the semi-inhibitory concentration of the compound on cell proliferation, that is, the IC50 value, with the analysis software, as shown in Table 2.
On the technique in general: In ATP-based viability assays light output follows the ATP content of the culture.

Structures are written as SMILES. Read-outs that look alike come from different tables or passages of the source.

tyrosine kinase FGFR1, sequence (P11362 22-822): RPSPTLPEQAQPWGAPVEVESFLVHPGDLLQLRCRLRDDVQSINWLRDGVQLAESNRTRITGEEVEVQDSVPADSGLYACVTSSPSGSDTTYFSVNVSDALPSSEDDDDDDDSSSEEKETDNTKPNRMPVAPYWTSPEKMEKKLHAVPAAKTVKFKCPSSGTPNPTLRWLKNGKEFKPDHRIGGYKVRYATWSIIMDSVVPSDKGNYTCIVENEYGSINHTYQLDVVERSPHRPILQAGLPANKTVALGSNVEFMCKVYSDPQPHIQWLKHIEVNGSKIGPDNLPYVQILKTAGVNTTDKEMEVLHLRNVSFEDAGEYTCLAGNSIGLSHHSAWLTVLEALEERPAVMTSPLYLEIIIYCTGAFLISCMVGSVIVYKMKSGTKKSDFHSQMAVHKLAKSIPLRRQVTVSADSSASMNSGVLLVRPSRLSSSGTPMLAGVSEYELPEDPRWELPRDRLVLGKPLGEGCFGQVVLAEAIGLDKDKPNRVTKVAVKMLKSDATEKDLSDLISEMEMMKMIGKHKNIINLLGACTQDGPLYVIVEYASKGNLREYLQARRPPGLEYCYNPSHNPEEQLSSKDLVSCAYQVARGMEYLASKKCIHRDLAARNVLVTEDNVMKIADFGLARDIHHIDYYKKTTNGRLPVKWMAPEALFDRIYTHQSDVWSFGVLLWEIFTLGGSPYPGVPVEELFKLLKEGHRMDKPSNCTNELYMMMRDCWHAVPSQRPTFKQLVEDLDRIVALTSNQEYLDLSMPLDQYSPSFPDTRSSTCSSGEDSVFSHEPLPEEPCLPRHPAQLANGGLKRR

The term IC50 denotes the midpoint of a concentration-inhibition curve. Consider `C=CC(=O)Nc1cc(N2CCOCC2)c(F)cc1Nc1cc2c(cn1)CN(c1c(F)c(OC)nc(OC)c1F)C(=O)C21CC1` [Compound 14, N-(2-((2′-(3,5-difluoro-2,6-dimethoxypyridine-4-yl)-3′-oxo-2′,3′-dihydro-1′H-spiro[cyclopropane-1,4′-[2,7]naphthyridine]-6′-yl)-amino)-4-fluoro-5-morpholinophenyl)acrylamide], for which the half-maximal inhibitory concentration (IC50) was greater than 9930 nM in experiment [1]; 2.6 nM in experiment [2]; 38.1 nM in experiment [3] (Homo sapiens, Hep3B, 72 h). In experiment [2], the “FGFR1 IC50 / FGFR4 IC50 ratio (FGFR4 selectivity)” value was 3817.
As for `C=CC(=O)Nc1cccc(C)c1Nc1cc2c(cn1)CN(c1c(F)c(OC)nc(OC)c1F)C(=O)C21CC1` [Compound 8, N-(2-((2′-(3,5-difluoro-2,6-dimethoxypyridine-4-yl)-3′-oxo-2′,3′-dihydro-1′H-spiro[cyclopropane-1,4′-[2,7]naphthyridine]-6′-yl)amino)-3-methylphenyl)acrylamide], the IC50 in experiment [1] stood at 8570 nM; in experiment [2], 2.7 nM; in experiment [3] (Homo sapiens, Hep3B, 72 h) it was 56.5 nM. Also, the “FGFR1 IC50 / FGFR4 IC50 ratio (FGFR4 selectivity)” value in experiment [2] amounted to 3172.
For `C=CC(=O)Nc1cc(N2CCOCC2C)ccc1Nc1cc2c(cn1)CN(c1c(F)c(OC)nc(OC)c1F)C(=O)C21CC1` (centres unmarked) [Compound 15, N-(2-((2′-(3,5-difluoro-2,6-dimethoxypyridine-4-yl)-3′-oxo-2′,3′-dihydro-1′H-spiro[cyclopropane-1,4′-[2,7]naphthyridine]-6′-yl)-amino)-5-(3-methomorpholinyl)phenyl)acrylamide], the IC50 turned out to be 2280 nM in experiment [1], 0.63 nM in experiment [2] and 15.3 nM in experiment [3]. For the same molecule, in experiment [2], the “FGFR1 IC50 / FGFR4 IC50 ratio (FGFR4 selectivity)” value worked out at 3617.
Take `C=CC(=O)Nc1cc(N2CCOCC2)ccc1Nc1cc2c(cn1)CN(c1c(F)c(OC)nc(OC)c1F)C(=O)C21CC1` [Compound 10, N-(2-((2′-(3,5-difluoro-2,6-dimethoxypyridine-4-yl)-3′-oxo-2′,3′-dihydro-1′H-spiro[cyclopropane-1,4′-[2,7]naphthyridine]-6′-yl)-amino)-5-morpholinophenyl) acrylamide]: the IC50 in experiment [1] was found to be 984 nM; in experiment [2], 0.67 nM; in experiment [3] (Homo sapiens, Hep3B, 72 h), 14 nM. Further, the “FGFR1 IC50 / FGFR4 IC50 ratio (FGFR4 selectivity)” value in experiment [2] was 1468.
For the molecule `C=CC(=O)Nc1ccccc1Nc1cc2c(cn1)CN(c1c(F)c(OC)nc(OC)c1F)C(=O)C21CC1` [Compound 7, N-(2-((2′-(3,5-difluoro-2,6-dimethoxypyridine-4-yl)-3′-oxo-2′,3′-dihydro-1′H-spiro[cyclopropane-1,4′-[2,7]naphthol]-6′-yl)amino)phenyl)acrylamide], in experiment [1], the IC50 came out at 4240 nM. Besides, in experiment [2], inhibition was half-maximal at 5.42 nM (IC50) and the “FGFR1 IC50 / FGFR4 IC50 ratio (FGFR4 selectivity)” value came to 782.
Take `C=CC(=O)N[C@H]1CCOC[C@H]1Nc1ncc2cc(-c3c(Cl)c(OC)cc(OC)c3Cl)ccc2n1` [BLU554, reference compound]: the IC50 stood at 624 nM in experiment [1]; 5.98 nM in experiment [2]; 38.4 nM in experiment [3] (Homo sapiens, Hep3B, 72 h).
As for `C=CC(=O)NCc1cc2c(cn1)CN(c1c(F)c(OC)nc(OC)c1F)C(=O)C21CC1` [Compound 1, N-((2′-(3,5-difluoro-2,6-dimethoxypyridine-4-yl)-3′-oxo-2′,3′-dihydro-1′H-spiro[cyclopropane-1,4′-[2,7]naphthine]-6′-yl)methyl) acrylamide], the IC50 in experiment [1] turned out to be 3660 nM; in experiment [2], 8.57 nM; in experiment [3] it was 52.6 nM. In addition, in experiment [2], the “FGFR1 IC50 / FGFR4 IC50 ratio (FGFR4 selectivity)” value is given as 426.
`C=CC(=O)Nc1cc(N2CCC(N3CCOCC3)CC2)ccc1Nc1cc2c(cn1)CN(c1c(F)c(OC)nc(OC)c1F)C(=O)C21CC1` [Compound 5, N-(2-((2′-(3,5-difluoro-2,6-dimethoxypyridine-4-yl)-3′-oxo-2′,3′-dihydro-1′H-spiro[cyclopropane-1,4′-[2,7]naphthyridine]-6′-yl)-amino)-5-(4-morpholinopiperidin-1-yl)phenyl)acrylamide]: the half-maximal inhibitory concentration (IC50) in experiment [1] stood at 6 nM; in experiment [2], 0.3 nM. The “FGFR1 IC50 / FGFR4 IC50 ratio (FGFR4 selectivity)” value in experiment [2] was determined as 20.
